Test results from patent publication US20150313934A1, “Use of PVP-Iodine Liposomes for Treatment of Herpes” (priority 2003, published 2015).

What was measured:
human viruses = conditions: aqueous solution mixed with viral suspensions; cited from earlier work
[1] = test system: Human ciliated epithelium cells
Protocol: The toleration of liposomal PVP-iodine solutions for nasal applications was studied by investigating the influence of different test substances on ciliated epithelium cells, the most sensible cells of the mucous membrane. A cytotoxic damage of these cells which would cause a restriction of the niucoclliar clearance can. be determined by a detectable decrease of the ciliary vibration.
Human ciliated epithelium cells were analysed by an in-vitro method which enables the determination of the ciliary activity or ciliary vibration. The corresponding cells were exposed and incubated with 100 je.I test substance at a temperature of 37 C. After an incubation period of 5 minutes the ciliary vibration, was measured.
By using this in-vltro method a nutriant solution (Dulbeco) as standard, a 0.2% chlorohexidine solution (typical antiseptic agent), conventional polyvidone iodine solutions (Betaisodona) .of different concentrations (5.0%, 2.5% and 1.25% PVP-iodine) and a liposomal solution containing 4.5% of PVP-iodine were tested.

Compound | antiviral effect on viral suspensions (human viruses) | ciliary activity / ciliary vibration [1]
poly(1-vinyl-2-pyrrolidin-2-on)-iodine complex [PVP-iodine] | effective antiviral compound | 
N=C(NCCCCCCNC(=N)NC(=N)Nc1ccc(Cl)cc1)NC(=N)Nc1ccc(Cl)cc1 [chlorohexidine] |  | decrease of the measured ciliary vibration
